According to the NIST ThermoML archive (doi:10.1016/j.fluid.2019.05.003):

Experiment: xn = mol fraction of the nth substance listed
Conditions: 101 kPa, Liquid; for viscosity: Falling or rolling sphere viscometry; for mass density: Vibrating tube method

CC[N+](C)(C)CCO.[Br-] [ethyl(2-hydroxyethyl)dimethylammonium bromide] + O
Conditions | mass density [kg/m3] | viscosity [mPa·s]
298.15 K, x1 = 0.026 | 1061.1 | 1.249
298.15 K, x1 = 0.049 | 1103.4 | 1.613
298.15 K, x1 = 0.068 | 1132.6 | 2.066
298.15 K, x1 = 0.086 | 1155.4 | 2.594
298.15 K, x1 = 0.119 | 1190.7 | 4.028
298.15 K, x1 = 0.156 | 1220 | 6.186
298.15 K, x1 = 0.185 | 1238.4 | 9.494
298.15 K, x1 = 0.214 | 1254.1 | 13
298.15 K, x1 = 0.257 | 1273.4 | 20.35
298.15 K, x1 = 0.319 | 1293.9 | 35.33
303.15 K, x1 = 0.026 | 1059.2 | 1.117
303.15 K, x1 = 0.049 | 1101.3 | 1.463
303.15 K, x1 = 0.068 | 1130.3 | 1.836
303.15 K, x1 = 0.086 | 1153 | 2.292
303.15 K, x1 = 0.119 | 1188.1 | 3.487
303.15 K, x1 = 0.156 | 1217.2 | 5.347
303.15 K, x1 = 0.185 | 1235.6 | 8.22
303.15 K, x1 = 0.214 | 1251.3 | 11.13
303.15 K, x1 = 0.257 | 1270.5 | 17.24
303.15 K, x1 = 0.319 | 1290.9 | 29.38
308.15 K, x1 = 0.026 | 1057.2 | 1.017
308.15 K, x1 = 0.049 | 1099.1 | 1.296
308.15 K, x1 = 0.068 | 1127.9 | 1.645
308.15 K, x1 = 0.086 | 1150.4 | 2.046
308.15 K, x1 = 0.119 | 1185.4 | 3.095
308.15 K, x1 = 0.156 | 1214.5 | 4.593
308.15 K, x1 = 0.185 | 1232.8 | 7.127
308.15 K, x1 = 0.214 | 1248.4 | 9.581
308.15 K, x1 = 0.257 | 1267.6 | 14.63
308.15 K, x1 = 0.319 | 1288 | 24.38
313.15 K, x1 = 0.026 | 1055.1 | 0.917
313.15 K, x1 = 0.049 | 1096.7 | 1.171
313.15 K, x1 = 0.068 | 1125.4 | 1.484
313.15 K, x1 = 0.086 | 1147.9 | 1.839
313.15 K, x1 = 0.119 | 1182.7 | 2.771
313.15 K, x1 = 0.156 | 1211.7 | 4.112
313.15 K, x1 = 0.185 | 1229.9 | 6.185
313.15 K, x1 = 0.214 | 1245.5 | 8.263
313.15 K, x1 = 0.257 | 1264.6 | 12.43
313.15 K, x1 = 0.319 | 1285 | 20.45
318.15 K, x1 = 0.026 | 1052.6 | 0.841
318.15 K, x1 = 0.049 | 1093.9 | 1.068
318.15 K, x1 = 0.068 | 1122.8 | 1.35
318.15 K, x1 = 0.086 | 1145.2 | 1.663
318.15 K, x1 = 0.119 | 1179.9 | 2.486
318.15 K, x1 = 0.156 | 1208.8 | 3.655
318.15 K, x1 = 0.185 | 1227 | 5.378
318.15 K, x1 = 0.214 | 1242.5 | 7.16
318.15 K, x1 = 0.257 | 1261.7 | 10.68
318.15 K, x1 = 0.319 | 1282 | 17.3
323.15 K, x1 = 0.026 | 1050.7 | 0.775
323.15 K, x1 = 0.049 | 1091.4 | 0.98
323.15 K, x1 = 0.068 | 1120.1 | 1.234
323.15 K, x1 = 0.086 | 1142.5 | 1.513
323.15 K, x1 = 0.119 | 1177.1 | 2.242
323.15 K, x1 = 0.156 | 1205.9 | 3.307
323.15 K, x1 = 0.185 | 1224.1 | 4.688
323.15 K, x1 = 0.214 | 1239.6 | 6.248
323.15 K, x1 = 0.257 | 1258.7 | 9.249
323.15 K, x1 = 0.319 | 1279 | 14.91
328.15 K, x1 = 0.026 | 1048.6 | 0.72
328.15 K, x1 = 0.049 | 1088.9 | 0.902
328.15 K, x1 = 0.068 | 1117.2 | 1.132
328.15 K, x1 = 0.086 | 1139.7 | 1.382
328.15 K, x1 = 0.119 | 1174.2 | 2.034
328.15 K, x1 = 0.156 | 1203 | 2.962
328.15 K, x1 = 0.185 | 1221.2 | 4.143
328.15 K, x1 = 0.214 | 1236.6 | 5.498
328.15 K, x1 = 0.257 | 1255.7 | 8.108
328.15 K, x1 = 0.319 | 1276 | 12.84
333.15 K, x1 = 0.026 | 1046.5 | 0.669
333.15 K, x1 = 0.049 | 1085.9 | 0.837
333.15 K, x1 = 0.068 | 1114.5 | 1.046
333.15 K, x1 = 0.086 | 1136.8 | 1.273
333.15 K, x1 = 0.119 | 1171.2 | 1.857
333.15 K, x1 = 0.156 | 1200.1 | 2.679
333.15 K, x1 = 0.185 | 1218.2 | 3.576
333.15 K, x1 = 0.214 | 1233.6 | 4.864
333.15 K, x1 = 0.257 | 1252.7 | 7.142
333.15 K, x1 = 0.319 | 1273 | 11.49
338.15 K, x1 = 0.026 | 1044.3 | 0.632
338.15 K, x1 = 0.049 | 1083.9 | 0.786
338.15 K, x1 = 0.068 | 1112.2 | 0.965
338.15 K, x1 = 0.086 | 1134.1 | 1.174
338.15 K, x1 = 0.119 | 1168.1 | 1.707
338.15 K, x1 = 0.156 | 1197.1 | 2.439
338.15 K, x1 = 0.185 | 1215.2 | 3.122
338.15 K, x1 = 0.214 | 1230.6 | 4.315
338.15 K, x1 = 0.257 | 1249.7 | 6.33
338.15 K, x1 = 0.319 | 1270 | 10.29
343.15 K, x1 = 0.026 | 1042.2 | 0.588
343.15 K, x1 = 0.049 | 1081.4 | 0.737
343.15 K, x1 = 0.068 | 1109.6 | 0.906
343.15 K, x1 = 0.086 | 1131.4 | 1.112
343.15 K, x1 = 0.119 | 1165.6 | 1.569
343.15 K, x1 = 0.156 | 1194 | 2.202
343.15 K, x1 = 0.185 | 1212.1 | 2.835
343.15 K, x1 = 0.214 | 1227.6 | 3.849
343.15 K, x1 = 0.257 | 1246.6 | 5.548
343.15 K, x1 = 0.319 | 1266.9 | 9.319
348.15 K, x1 = 0.026 | 1040.1 | 0.56
348.15 K, x1 = 0.049 | 1078.9 | 0.679
348.15 K, x1 = 0.068 | 1107 | 0.853
348.15 K, x1 = 0.086 | 1128.3 | 1.071
348.15 K, x1 = 0.119 | 1162.8 | 1.454
348.15 K, x1 = 0.156 | 1190.9 | 2.022
348.15 K, x1 = 0.185 | 1209.4 | 2.576
348.15 K, x1 = 0.214 | 1224.5 | 3.479
348.15 K, x1 = 0.257 | 1243.6 | 4.96
348.15 K, x1 = 0.319 | 1263.9 | 8.658
